One data set has as its system alpha-synuclein. Briefly: alpha-synuclein ELISA of plasma, cortex and midbrain of SNCA transgenic mice. It is filed as in vivo, mouse. Conditions: three months of diet; untreated controls 2.52±0.28. From the text:
Matched cohorts of an SNCA transgenic mouse model of PD were used to measure the therapeutic efficacy of the medical food formulation ErgoD2TM, created from a single mushroom species, Pleurotus […]. The outcomes measurements assessed improvement in grip strength and alpha-synuclein levels in the cortex and/or midbrain of the PD animals. […] No detectable motor behavior impairments, autonomic abnormalities, olfactory dysfunction, dopaminergic deficits, Lewy body inclusions or neurodegeneration are associated with α-synuclein expression in these mice (Kuo et al., 2010). As outlined in the results section, the mice were grouped at ten (10) mice/cohort and were fed a purina diet for three months with and without addition of the medical food ErgoD2TM, provided by Entia Biosciences, Inc. Three (3) test diets were created with the assistance of Carrie Schultz, Ph.D., Land O'Lakes Purina Feed, and each diet was color-coded. […] Alpha-synuclein was measured using an ELISA kit (Invitrogen, Hu α-Synuclein ELISA Kit) according to the manufacturer's protocol. The α-synuclein concentration of each 1 mL homogenized midbrain lysate was calculated by interpolating absorbance readings to a standard curve and adjusting for necessary dilution factors and protein equivalencies. The mean α-synuclein concentration of the samples in each treatment group was then calculated. […]

A further data set has as its system IL-6. The experiment in a line: IL-6 ELISA of whole blood cell lysate from alpha synuclein transgenic mice. Type of data set: in vivo. Conditions: one remaining sample per treatment group. How it is done:
We pursued this effect in our mice since the role of IL-6 and other neuroimmune factors need to be elucidated on PD. Alpha synuclein transgenic mice expressing the human gene for alpha-synuclein were treated with the medical food ErgoD2™ (Pleurotus; Table 3) or N-Acetylcysteine (NAC), and whole blood cell lysate samples from these mice were evaluated in triplicate using an ELISA for the presence of IL-6. The results were compared to those from untreated and wild-type controls.
A serial dilution of provided standard solution allowed for the creation of a standard curve following absorbency reading. An exponential regression of this curve was used to extrapolate the concentration of IL-6 in the lysate samples based on their final absorbency values and accounting for dilution factors of the samples.
Lysate samples taken from subjects #222 and #321 were clotted. A small amount of each was used during assay, but their relatively high corresponding dilution factors call into question the findings based on these samples.
A general note: In an ELISA, binding on a coated surface is turned into a signal by an enzyme label.

The subject of a further data set is glutathione (GSH). Briefly: kinetic assay of plasma glutathione (GSH) in Pac-Tg (SNCA) transgenic mice. It is filed as in vivo. As to conditions: trend only: p=0.10 (Pleurotus), p=0.09 (NAC). The method, then: Our Pac-Tg (SNCA) mice transgenic mice express the human gene for human alpha-synuclein and these were assigned one of four treatment paradigms (including no treatment). Plasma samples taken from these mice were evaluated in duplicate using a kinetic assay protocol for the presence of glutathione (GSH), a measure of resilience to oxidative stress. The tested subject groups were treated with one of the following: Blazei Mushroom, Pleurotus mushroom, or n-acetyl cysteine (NAC). The results for these groups were compared to those for both untreated and wild-type controls.
Data. A serial dilution of provided standard solution allowed for the creation of a standard curve following kinetic absorbance readings (FIGS. 6A and B). The change in absorbance (Vmax) over five minutes (six absorbance readings) was calculated for each standard and plotted against each standard's known GSH concentration. […] The change in absorbance for the second standard was calculated using only the first two kinetic readings (t=0, t=1) for the same reason. […] A linear regression of the resulting standard curve allowed for extrapolation of GSH levels in the assayed plasma samples based on their changes in absorbance (Vmax) over six minute-reads.
Following tabulation of the data, results were omitted if they were not reproducible in duplicate using all six kinetic readings and within 30% precision. […]

The subject of data set [1] is SNCA transgenic mouse model of PD. Briefly: grip strength task in SNCA transgenic mouse model of PD. It is filed as in vivo. Conditions: PD model mice, three months of treatment. From the text: Matched cohorts of an SNCA transgenic mouse model of PD were used to measure the therapeutic efficacy of the medical food formulation ErgoD2TM, created from a single mushroom species, Pleurotus […]. The outcomes measurements assessed improvement in grip strength and alpha-synuclein levels in the cortex and/or midbrain of the PD animals. […] No detectable motor behavior impairments, autonomic abnormalities, olfactory dysfunction, dopaminergic deficits, Lewy body inclusions or neurodegeneration are associated with α-synuclein expression in these mice (Kuo et al., 2010). As outlined in the results section, the mice were grouped at ten (10) mice/cohort and were fed a purina diet for three months with and without addition of the medical food ErgoD2TM, provided by Entia Biosciences, Inc. Three (3) test diets were created with the assistance of Carrie Schultz, Ph.D., Land O'Lakes Purina Feed, and each diet was color-coded. The control/placebo mouse diet consisted of Purina Modified LabDiet® (RMH 3000). The two treatment diets were RMH 3000 supplemented with (i) synthetic N-Acetyl Cysteine (NAC) @ 0.015% of total weight and (ii) the medical food ErgoD2TM @ 0.5% of total weight. […] The mouse is then pulled back gently until the grip is released and peak force at the point of release is recorded in Kg. […]

In the next data set the test system is Drosophila melanogaster. The experiment in a line: survival of Drosophila under Paraquat-induced oxidative stress. Type of data set: in vivo. As to conditions: for effect on Paraquat-induced oxidative stress (in words): single nutrient, pure form. How it is done: The effect of Agaricus Blazei without enrichment, with Vitamin D2 enrichment, pure Vitamin D2 and control (vehicle for the delivery) on the survival rate of Drosophila melanogaster under Paraquat-induced oxidative stress condition was tested. The study focused on the control of Paraquat induced oxidative stress/biologic death. Paraquat is a very potent oxidative stress inducing chemical and causes death in animals and plants by the toxicity of released free radicals. Paraquat (10 mM concentration) (Sigma Aldrich) was used to chemically induce oxidative stress. Paraquat is the trade name for N,N′-dimethyl-4,4′-bipyridinium dichloride, a widely used herbicide. Paraquat, a viologen, is quick-acting and non-selective, killing green plant tissue on contact. It is also toxic to humans when swallowed. This is the most standard chemical used in experimental induction of oxidative stress using the Drosophila model system. It catalyzes the formation of reactive oxygen species (ROS). Paraquat will undergo redox cycling in vivo, gets reduced by an electron donor such NADPH, before being oxidized by an electron receptor such as dioxygen to produce superoxide, a major ROS.
The following materials and methods were utilized. Vials containing 10 mM Paraquat (from Sigma Aldrich) in 5 ml of 1.2% Low melting point Agarose medium were prepared. A strip of half moist filter paper was inserted in the medium (with the wet end in). Yeast paste containing 1% concentration (w/w) of the various test materials (see above) mixed to homogeneity was prepared. Yeast paste without drug was used as control. Uniform aliquot (˜300 mg) of yeast paste with or without the test material) was applied to vials in such a way that yeast paste was on the glass surface and covered the dry end (top) of the filter paper strip. Freshly enclosed wild type isogenized Canton-S males and females were collected and starved on 1% agar medium for 5-6 hours. […] Flies were transferred once in 2 days and the number of flies surviving at each transfer was recorded.

The subject of data set [2] is Alzheimer's disease mutant fruit fly. Briefly: survival and life span of Alzheimer's disease (APP over-expression) Drosophila model. As to conditions: APP induced in central brain by GAL4 driver. Type of data set: in vivo. From the text: Type of Model (with specific Drosophila model of neurodegeneration, with references). The targeted over/ectopic expression of APP in the brain using a UAS promoter driven APP transgene, induced by a specific GAL4 trans-driver in the brain of a Drosophila model system, was used for this Example. Below is a reference for such over-expression of APP in the Drosophila model system and the combination gives a fully penetrant AD with limited life-span.
β-Amyloid peptides and amyloid precursor protein (APP) play a deterministic role in Alzheimer's disease (AD). In Drosophila, the targeted expression of the key genes of AD, APP, causes generation of β-amyloid plaques and age-dependent neurodegeneration as well as progression to semi lethality, a shortened life span; genetic manipulations or pharmacological treatments with secretase inhibitors influenced the activity of the APP-processing proteases and modulated the severity of the phenotypes (Greeve I., et al., J. Neuroscience 24, 3899-3906 (2004)). The AD strain lives only for a few days after their eclosion (birth) as opposed to 65 days or more for wild type normal strains.
We determined the extension of life span in the mutant strain for each test compound. We used a specific GAL4 driver that induces the APP gene in the central brain area at high levels (see above) and results in a fully penetrant lethality within a 2-3 weeks period.

For data set [3] the following is noted: after mushroom consumption, healthy men; cited from earlier work.

Take `CC(=O)N[C@@H](CS)C(=O)O` [NAC, N-Acetylcysteine]: the “mean midbrain α-synuclein concentration” value in the data set on alpha-synuclein is 2.17 ± 0.31 µg/mL. In the data set on IL-6, the “IL-6 more than the untreated group” value came to 8.7 pg/mL and the “IL-6 more than the wild-type group” value worked out at 9.5 pg/mL. Further, the “plasma glutathione concentration vs. untreated mice” value in the data set with glutathione (GSH) was “higher concentrations of glutathione”. The “grip testing (in words)” value in data set [1] was “statistically significant improvement”.
For `C=C1CC[C@H](O)C/C1=C/C=C1\CCC[C@]2(C)[C@@H]([C@H](C)/C=C/[C@H](C)C(C)C)CC[C@@H]12` [pure Vitamin D2, Ergocalciferol], the “survivability under Paraquat-induced oxidative stress” value in the data set with Drosophila melanogaster (10 mM Paraquat, 1% (w/w) test material in yeast paste, 10 days, 25 degrees C) is 13%+/−3%. The “effect on Paraquat-induced oxidative stress (in words)” value in the data set with Drosophila melanogaster is recorded as “no beneficial effect”. The “survival rate of AD flies versus control” value in data set [2] was “no such effect”.
Regarding `C[N+](C)(C)[C@@H](Cc1c[nH]c(=S)[nH]1)C(=O)[O-]` [ET, L-Ergothioneine], in data set [3], the “time to peak of ET in red blood cells (RBC)” value is 2 h.
For `C=C1CC[C@H](O)C/C1=C/C=C1\CCC[C@]2(C)[C@@H]([C@H](C)CCCC(C)C)CC[C@@H]12` [Vitamin D3, cholecalciferol], in the data set with Drosophila melanogaster, the “effect on Paraquat-induced oxidative stress (in words)” value is “no beneficial effect”. The “survival rate of AD flies versus control” value in data set [2] is “no such effect”.

The values above are taken from patent US20150157648A1, “NUTRITIONAL APPROACH TO IMPROVING ATHLETIC PERFORMANCE AND REDUCING INJURY WITH L-ERGOTHIONEINE AND/OR VITAMIN D2” (priority 2012, published 2015).
